According to PubChem BioAssay (NCI):
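Five compound concentrations were applied to cells in 96-well plates for 48 hours; endpoints were derived by simple linear interpolation of the resulting dose-response curve. GI50 marks 50% less growth. At the TGI there is no net growth.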

Columns and labels:
Assay in all cases: NCI anticancer screen, dose series, 48 h
786-0 renal = test system: 786-0 renal
A498 renal = test system: A498 renal
A549 NSCLC = test system: A549 NSCLC
ACHN renal = test system: ACHN renal
BT-549 breast = test system: BT-549 breast
CAKI-1 renal = test system: CAKI-1 renal
CCRF-CEM leukemia = test system: CCRF-CEM leukemia
COLO 205 colon = test system: COLO 205 colon
DU-145 prostate = test system: DU-145 prostate
EKVX NSCLC = test system: EKVX NSCLC
HCC-2998 colon = test system: HCC-2998 colon
HCT-116 colon = test system: HCT-116 colon
HCT-15 colon = test system: HCT-15 colon
HL-60(TB) leukemia = test system: HL-60(TB) leukemia
HOP-62 NSCLC = test system: HOP-62 NSCLC
HOP-92 NSCLC = test system: HOP-92 NSCLC
HS 578T breast = test system: HS 578T breast
HT29 colon = test system: HT29 colon
IGROV1 ovarian = test system: IGROV1 ovarian
K-562 leukemia = test system: K-562 leukemia
KM12 colon = test system: KM12 colon
LOX IMVI melanoma = test system: LOX IMVI melanoma
M14 melanoma = test system: M14 melanoma
MALME-3M melanoma = test system: MALME-3M melanoma
MCF7 breast = test system: MCF7 breast
MDA-MB-231 breast = test system: MDA-MB-231 breast
MDA-MB-435 = test system: MDA-MB-435
MOLT-4 leukemia = test system: MOLT-4 leukemia
NCI-H226 lung = test system: NCI-H226 lung
NCI-H23 lung = test system: NCI-H23 lung
NCI-H460 lung = test system: NCI-H460 lung
NCI-H522 lung = test system: NCI-H522 lung
NCI/ADR-RES ovarian = test system: NCI/ADR-RES ovarian
OVCAR-3 ovarian = test system: OVCAR-3 ovarian
OVCAR-4 ovarian = test system: OVCAR-4 ovarian
OVCAR-5 ovarian = test system: OVCAR-5 ovarian
OVCAR-8 ovarian = test system: OVCAR-8 ovarian
PC-3 prostate = test system: PC-3 prostate
RPMI-8226 leukemia = test system: RPMI-8226 leukemia
RXF 393 renal = test system: RXF 393 renal
SF-268 CNS = test system: SF-268 CNS
SF-295 CNS = test system: SF-295 CNS
SF-539 CNS = test system: SF-539 CNS
SK-MEL-2 melanoma = test system: SK-MEL-2 melanoma
SK-MEL-28 melanoma = test system: SK-MEL-28 melanoma
SK-MEL-5 melanoma = test system: SK-MEL-5 melanoma
SK-OV-3 ovarian = test system: SK-OV-3 ovarian
SN12C renal = test system: SN12C renal
SNB-19 CNS = test system: SNB-19 CNS
SNB-75 CNS = test system: SNB-75 CNS
SR leukemia = test system: SR leukemia
SW-620 colon = test system: SW-620 colon
T-47D breast = test system: T-47D breast
TK-10 renal = test system: TK-10 renal
U251 CNS = test system: U251 CNS
UACC-257 melanoma = test system: UACC-257 melanoma
UACC-62 melanoma = test system: UACC-62 melanoma
UO-31 renal = test system: UO-31 renal

## Cc1ccc(-c2nc3nc(-c4ccc(Br)cc4)nc(N4CCCNCC4)c3o2)cc1
786-0 renal
  GI50: 3.95 µM
  TGI: 16 µM
A498 renal
  GI50: 13.9 µM
  TGI: 27.5 µM
A549 NSCLC
  GI50: 1.96 µM
  TGI: 4.04 µM
ACHN renal
  GI50: 1.91 µM
  TGI: 3.59 µM
BT-549 breast
  GI50: 16 µM
  TGI: 34.6 µM
CAKI-1 renal
  GI50: 1.58 µM
  TGI: 2.92 µM
CCRF-CEM leukemia
  GI50: 2.35 µM
  TGI: 5.57 µM
COLO 205 colon
  GI50: 5.56 µM
  TGI: 20.2 µM
DU-145 prostate
  GI50: 1.92 µM
  TGI: 3.55 µM
EKVX NSCLC
  GI50: 13.8 µM
  TGI: 28.4 µM
HCC-2998 colon
  GI50: 15.4 µM
  TGI: 30.2 µM
HCT-116 colon
  GI50: 1.82 µM
  TGI: 3.36 µM
HCT-15 colon
  GI50: 1.72 µM
  TGI: 3.25 µM
HL-60(TB) leukemia
  GI50: 1.99 µM
  TGI: 4.07 µM
HOP-62 NSCLC
  GI50: 15.8 µM
  TGI: 35.1 µM
HOP-92 NSCLC
  GI50: 12.7 µM
  TGI: 29.5 µM
HS 578T breast
  GI50: 17.2 µM
  TGI: 37.1 µM
HT29 colon
  GI50: 1.86 µM
  TGI: 3.54 µM
IGROV1 ovarian
  GI50: 1.84 µM
  TGI: 3.61 µM
K-562 leukemia
  GI50: 2.31 µM
  TGI: 4.98 µM
KM12 colon
  GI50: 1.93 µM
  TGI: 3.82 µM
LOX IMVI melanoma
  GI50: 1.76 µM
  TGI: 3.34 µM
M14 melanoma
  GI50: 4.64 µM
  TGI: 18.1 µM
MALME-3M melanoma
  GI50: 15.4 µM
  TGI: 30.1 µM
MCF7 breast
  GI50: 1.78 µM
  TGI: 3.51 µM
MDA-MB-231 breast
  GI50: 1.93 µM
  TGI: 4.05 µM
MDA-MB-435
  GI50: 1.88 µM
  TGI: 3.74 µM
MOLT-4 leukemia
  GI50: 2.08 µM
  TGI: 4.14 µM
NCI-H226 lung
  GI50: 17 µM
  TGI: 38.9 µM
NCI-H23 lung
  GI50: 17.1 µM
  TGI: 34.9 µM
NCI-H460 lung
  GI50: 1.9 µM
  TGI: 3.61 µM
NCI-H522 lung
  GI50: 1.86 µM
  TGI: 4.5 µM
NCI/ADR-RES ovarian
  GI50: 2.2 µM
  TGI: 4.58 µM
OVCAR-3 ovarian
  GI50: 1.84 µM
  TGI: 3.36 µM
OVCAR-4 ovarian
  GI50: 7.2 µM
  TGI: 21 µM
OVCAR-5 ovarian
  GI50: 16.3 µM
  TGI: 30 µM
OVCAR-8 ovarian
  GI50: 2.28 µM
  TGI: 5.28 µM
PC-3 prostate
  GI50: 2.48 µM
  TGI: 7.52 µM
RPMI-8226 leukemia
  GI50: 2.58 µM
  TGI: 6.63 µM
RXF 393 renal
  GI50: 13.7 µM
  TGI: 27.5 µM
SF-268 CNS
  GI50: 3.63 µM
  TGI: 15.2 µM
SF-295 CNS
  GI50: 17.9 µM
  TGI: 33 µM
SF-539 CNS
  GI50: 3.27 µM
  TGI: 11.4 µM
SK-MEL-2 melanoma
  GI50: 18.5 µM
  TGI: 36.3 µM
SK-MEL-28 melanoma
  GI50: 17.4 µM
  TGI: 31.8 µM
SK-MEL-5 melanoma
  GI50: 16.7 µM
  TGI: 31.6 µM
SK-OV-3 ovarian
  GI50: 17.5 µM
  TGI: 33.4 µM
SN12C renal
  GI50: 10.5 µM
  TGI: 23.7 µM
SNB-19 CNS
  GI50: 14.1 µM
  TGI: 27.6 µM
SNB-75 CNS
  GI50: 10.5 µM
  TGI: 22.4 µM
SR leukemia
  GI50: 1.78 µM
  TGI: 4.4 µM
SW-620 colon
  GI50: 1.84 µM
  TGI: 3.57 µM
T-47D breast
  GI50: 3.06 µM
  TGI: 13.9 µM
TK-10 renal
  GI50: 20 µM
  TGI: 34.8 µM
U251 CNS
  GI50: 1.77 µM
  TGI: 3.45 µM
UACC-257 melanoma
  GI50: 18.2 µM
  TGI: 39.7 µM
UACC-62 melanoma
  GI50: 17 µM
  TGI: 31.9 µM
UO-31 renal
  GI50: 2.12 µM
  TGI: 7.04 µM
